Measured values reported in publication PMC10144566, “Pharmacokinetic Profile Evaluation of Novel Combretastatin Derivative, LASSBio-1920, as a Promising Colorectal Anticancer Agent” (Pharmaceutics, 2023).
Entries after “also recorded” stand apart in the source; their conditions may differ. Where two headings read alike, the source gives them in different places.

How the values were obtained:
[1] = tested on: HPBMC, human peripheral blood mononuclear cells; assay: MTT cytotoxicity assay, HPBMC; type: cell-based; conditions: PBMC, 72 h incubation, read-out: IC50 (95% CI) HPBMC
Method: Heparinized blood was collected from healthy, non-smoking donors who had not taken any drugs during the 15 days prior to sampling. Human peripheral blood mononuclear cells (HPBMC) were isolated by a standard density-gradient centrifugation method over Ficoll-Hypaque® media (Merck-Sigma-Aldrich, St. Louis, MO, USA). HPBMC were washed and resuspended in RPMI-1640 medium supplemented with 20% fetal bovine serum, 2 mM glutamine, 100 U/mL penicillin, and 100 µg/mL streptomycin at 37 °C with 5% CO2. Phytohemagglutinin (3%) was added at the beginning of the culture.
The cytotoxicity of the compounds was determined using the MTT assay. Cells were seeded in 96-well plates as follows: 0.7 × 10^5 cells/well for adherent cancer cells, 0.3 × 10^5 cells/well for suspended cancer cells, and 0.2 × 10^5 cells/well for HPBMCs. The treatments were dissolved in DMSO and added to each well using an automated liquid handler for high-throughput screening (Biomek 3000—Beckman Coulter, Inc., Fullerton, CA, USA) and incubated for either 24, 48, and 72 h. The control group was treated with the vehicle. […] After incubation, the supernatant was decanted and replaced with fresh medium containing MTT (0.5 mg/mL). Three hours later, the MTT’s formazan product was dissolved in 150 µL of pure DMSO, and absorbance was measured at 595 nm (DTX 880 Multimode Detector, Beckman Coulter, Inc., Pasadena, CA, USA).
Data were presented as mean ± standard error of the mean (SEM) from three independent experiments performed in triplicate, calculated using Prism 8.0 (GraphPad/Intuitive Software for Science, San Diego, CA, USA). The IC50 of the compounds was obtained using a non-linear regression of the cytotoxicity curves.

HCT-116 cells = assay: Annexin V/7-AAD apoptosis assay by flow cytometry, HCT-116; type: cell-based, human; conditions: 6 µM, 48 h, negative control 5.14 ± 0.61%
Method: (§1) The control group received the same amount of vehicle, of which the concentration was kept constant (below 0.5%). Cell treatments were completed in triplicate. CA4 (0.2 or 0.5 µM) was used as the positive control. Stock solutions of the compounds tested were dissolved in DMSO and diluted in the culture medium to obtain the desired concentrations.
(§2) Apoptosis assay: Apoptosis was analyzed using Annexin V/7-AAD staining followed by flow cytometry. Cells were collected and stained using an Annexin V-PE/7-AAD apoptosis detection kit. Annexin V binds to phosphatidylserine (PS) in apoptosis cells as PS translocates from the inner to the outer leaflet of the cytoplasmic membrane. 7-AAD is a fluorescent intercalator of DNA impermeable to the cell, providing a reliable indication of membrane integrity. Double staining distinguishes between viable, early apoptotic, necrotic, and late apoptotic cells. The resulting fluorescence of annexin V-PE at 583 nm and 7-AAD at 680 nm of every sample was analyzed by flow cytometry. The 7-AAD-positive and annexin V-negative cells were considered necrotic. Annexin V-positive cells (7-AAD-positive and 7-AAD-negative cells) were classified as apoptotic. 7-AAD-negative and annexin V-negative cells were deemed viable.

PC-9 cells = assay: Annexin V/7-AAD apoptosis assay by flow cytometry, PC-9; type: cell-based, human; conditions: 0.75 µM, 48 h, negative control 2.40 ± 0.17%
Method: as §1, §2

[2] = Chemical stability in buffer (HPLC); type: physicochemical; conditions: 0–240 min
[3] = In vitro plasma stability; type: in vitro ADME; conditions: rat plasma, 37 °C, 100 μM
Method: The in vitro stability of the test compounds was studied in rat plasma. Blood from different Wistar rats was centrifuged with heparin at 20 °C for 15 min at 2000 rpm to separate the plasma, which was diluted to 80% with 0.05 M phosphate-buffered saline (PBS, pH 7.4) at 37 °C [23]. The test compounds were added to 200 µL of preheated plasma solution to yield a final concentration of 100 μM. The final concentration of DMSO in the incubation mixture was 0.5%. The assays were performed with agitation in a water bath at 37 °C and conducted in triplicate. Samples were taken at 0, 30, 60, and 240 min. After each sampling time, 500 µL of cold methanol was added to the mixture immediately, followed by 500 µL of cold acetonitrile. The samples were mixed and centrifuged at room temperature for 15 min at 13,000 rpm. The supernatant was analyzed by HPLC (acetonitrile/water, 7:3, with 0.1% trifluoroacetic acid) using an internal standard (4-acetylbiphenyl—final concentration of 20 µM).

PAMPA-GIT permeability = type: in vitro ADME; conditions: PAMPA-GIT, 5 h, room temperature; read-out: Pe (Experimental)
Source text: (§3) For this, two 96-well plates were placed one above the other, and between them, an artificial hydrophobic polyvinylidene fluoride (PVDF) membrane, which was impregnated with a lipid solution. The top plate works as the donor compartment and the bottom one as the receiver compartment.
Parallel artificial membrane permeation assay for gastrointestinal tract (GIT-PAMPA): 1% (w/v) phosphatidylcholine was mixed with dodecane as a lipid solution to impregnate the PVDF membrane between the donor and receiver plates to stimulate intestinal permeability. […] A total of 180 µL of the mixture of PBS and DMSO (v/v 95:5) was added to the recipient plate, and 180 µL of the test solution was added to the donor plate. Immediately and carefully, the donor plate was placed above the receiver plate and incubated for 5 h at room temperature. The solution captured on the receptor plate was removed and subsequently analyzed by a UV detector (SpectraMax 5®—Molecular Devices, Sao Jose, CA, USA). The experiments were performed in quadruplicate.

PAMPA-BBB permeability = type: in vitro ADME; conditions: for Papp: PAMPA
Method: as §3
Parallel artificial membrane permeation assay for the blood–brain barrier (PAMPA-BBB): It was performed according to the previously reported [26] method established by Lu and coworkers [27].

[4] = tested on: PC-3, prostate adenocarcinoma; assay: MTT cytotoxicity assay, PC-3; conditions: Homo sapiens, 72 h, read-out: IC50 (95% CI) PC-3
Method: (§4) The cytotoxicity of the compounds was determined using the MTT assay [13]. Cells were seeded in 96-well plates as follows: 0.7 × 10^5 cells/well for adherent cancer cells, 0.3 × 10^5 cells/well for suspended cancer cells, and 0.2 × 10^5 cells/well for HPBMCs. […] The control group was treated with the vehicle. […] After incubation, the supernatant was decanted and replaced with fresh medium containing MTT (0.5 mg/mL).

[5] = tested on: PC-9, lung adenocarcinoma (overexpressed EGFR with L858R mutation); assay: MTT cytotoxicity assay, PC-9; conditions: for IC50: Homo sapiens
Method: as §4

SF-295, glioblastoma = assay: MTT cytotoxicity assay, SF-295; conditions: Homo sapiens, SF-295, 72 h, read-out: IC50 (95% CI) SF-295
Method: as §4

[6] = tested on: H-1975, non-small cell lung adenocarcinoma; assay: MTT cytotoxicity assay, H-1975; conditions: Homo sapiens, NCI-H1975, 72 h, read-out: IC50 (95% CI) H-1975
Method: as §4

[7] = tested on: HCT-116 human colorectal cancer cells (colon carcinoma); assay: MTT cytotoxicity assay, HCT-116; conditions: for IC50: Homo sapiens
Method: as §4

[8] = tested on: human tumor cell lines (HCT-116, SF-295, PC-3, H-1975, PC-9, N-87); assay: MTT cytotoxicity assay, panel of human tumor cell lines; conditions: 72 h, read-out: IC50 values against all tumor cell lines
Method: as §4

[9] = IC50 for HPBMC/IC50 for the tumor cell line, 72 h

COc1cc(C(=O)N/N=C/c2cc3ccccc3s2)cc(OC)c1OC [LASSBio-1920, (E)-N′-(Benzo[b]thiophen-2-ylmethylene)-3,4,5-trimethoxybenzohydrazide]
IC50 [1]: 140 nM
apoptotic HCT-116 cells (HCT-116 cells): 12.62 ± 2.26%
apoptotic events PC-9 cells (PC-9 cells): 15.49 ± 1.28%
chemical stability at pH 2 ([2]; HCl buffer pH 2, 37 °C): unstable at pH 2; also recorded: unstable in an acid medium (HCl buffer, pH 2)
chemical stability at pH 7.4 ([2]; phosphate buffer pH 7.4, 37 °C): stable at pH 7.4 at all time points; also recorded: stable in a practically neutral medium (phosphate buffer, pH 7.4)
plasma stability [3]: stable at all time points of the assay; also recorded: not metabolized by plasma esterases, exhibiting substantial stability; also recorded: has plasma stability
Papp at 5 h, 0.5 mM (PAMPA-GIT permeability): 6.6 ×10⁻⁶ cm/s
Papp (PAMPA-BBB permeability; PAMPA-BBB classification: absorbed by the Central Nervous System, read-out: CNS Permeability): > 3.47 ×10⁻⁶ cm/s
Papp (PAMPA-BBB permeability; PAMPA-BBB, mean, read-out: Pe (Experimental Mean)): 11.5 ×10⁻⁶ cm/s
Pe (Experimental Mean) (PAMPA-BBB permeability; PAMPA-BBB, mean): 11.48 10–6 cm/s
Pe1 (Experimental) (PAMPA-BBB permeability; PAMPA-BBB, replicate 1): 12.43 10–6 cm/s
Pe2 (Experimental) (PAMPA-BBB permeability; PAMPA-BBB, replicate 2): 10.53 10–6 cm/s
IC50 [4]: 1680 nM
IC50 ([5]; 24 h, read-out: IC50 (95% CI) PC-9 24 h): 78800 nM
IC50 ([5]; 48 h, read-out: IC50 (95% CI) PC-9 48 h): 1010 nM
IC50 ([5]; 72 h, read-out: IC50 (95% CI) PC-9 72 h): 70 nM
SI HPBMC/PC-9 [5, 9]: 2
IC50 (SF-295, glioblastoma): 110 nM
IC50 [6]: 210 nM
IC50 ([7]; HCT-116, 24 h, read-out: IC50 (95% CI) HCT-116 24 h): > 100000 nM
IC50 ([7]; HCT-116, 48 h, read-out: IC50 (95% CI) HCT-116 48 h): 2700 nM
IC50 ([7]; HCT-116, 72 h, read-out: IC50 (95% CI) HCT-116): 60 nM
IC50 ([7]; HCT-116, 72 h, read-out: IC50 (95% CI) HCT-116 72 h): 60 nM
SI HPBMC/HCT-116 [7, 9]: 2.3
IC50 [8]: 60 to 1680 nM
